Several values for one entry are separate records, joined by “and”; a condition that tells them apart may be missing. Equal entries are not always repeated. Where two headings read alike, the source gives them in different places.
Columns and labels:
hA3 AR = molecular target: T1, hA3 AR (Homo sapiens, UniProt P0DMS8); assay: Radioligand competition binding assay at hA3 AR; parameters: expressed in transfected cells; host or cells: Hela-A3 cell line; details: [3H]NECA; for inhibition at 10 µM / Percentage Inhibition (%) at 10 μM, hA3 AR: 10 μM compound; for inhibition at 10 µM: read-out: Percentage Inhibition (%) at 10 μM, hA3 AR
T1 sequence (P0DMS8 1-318): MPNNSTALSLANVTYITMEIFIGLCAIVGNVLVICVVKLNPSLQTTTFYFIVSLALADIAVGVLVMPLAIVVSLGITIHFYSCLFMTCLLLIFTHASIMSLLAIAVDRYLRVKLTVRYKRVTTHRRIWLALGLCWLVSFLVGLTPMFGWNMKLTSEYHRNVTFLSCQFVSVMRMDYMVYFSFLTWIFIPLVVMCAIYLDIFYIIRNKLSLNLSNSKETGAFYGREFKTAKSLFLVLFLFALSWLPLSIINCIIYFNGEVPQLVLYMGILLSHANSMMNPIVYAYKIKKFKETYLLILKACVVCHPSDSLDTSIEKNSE
Description: (§1) All the synthesized compounds were screened with radioligand binding assays at hARs. First, the percentage of inhibition was measured by treatment of each hAR subtype with 10 μM of each compound (Table 1).
(§2) hA1, hA2A, and hA3 AR competition binding experiments were carried out in a multiscreen GF/C 96-well plate (Millipore, Madrid, Spain) pretreated with binding buffer (Hepes 20 mM, NaCl 100 mM, MgCl2 10 mM, 2 U/mL adenosine deaminase, pH = 7.4 for hA1 AR; Tris-HCl 50 mM, EDTA 1 mM, MgCl2 10 mM, 2 U/mL adenosine deaminase, pH = 7.4 for hA2A AR; and Tris-HCl 50 mM, EDTA 1 mM, MgCl2 5 mM, 2 U/mL adenosine deaminase, pH = 7.4 for hA3 AR, respectively). In each well was incubated 5 µg of membranes from Euroscreen CHO-A1 cell line, 5µg of membranes from Hela-A2A cell line, or 30µg of membranes from Hela-A3 cell line and prepared in laboratory: 1 nM [^3H]-DPCPX (140 Ci/mmol, 1 mCi/Ml, Perkin Elmer NET974001MC) for hA1 AR; 1 nM [^3H]-ZM241385 (50 Ci/mmol, 1 mCi/mL, ARC-ITISA 0884) for hA2A AR; and 10 nM [^3H]-NECA (29.6 Ci/mmol, 1 mCi/mL, Perkin Elmer NET811250UC) for hA3 AR, respectively; and the compounds studied according to standard protocol. Non-specific binding was determined in the presence of R-PIA 10 µM (Sigma P4532) for hA1 AR; of NECA 50 µM (Sigma E2387) for hA2A AR; and of R-PIA 100 µM (Sigma P4532) for hA3 AR, respectively. The reaction mixture (Vt: 200 µL/well) was incubated at 25 °C for 60 min (hA1 AR), 30min (hA2A AR), or 180min (hA3 AR); whereafter it was filtered and washed four times (hA1 and hA2A AR) or six times (hA3 AR) with 250 μL wash buffer (Hepes 20 mM, NaCl 100 mM, MgCl2 10 mM pH = 7.4, for hA1 AR; Tris-HCl 50 mM, EDTA 1 mM, MgCl2 10 mM, pH = 7.4, for hA2A AR; and Tris-HCl 50mM pH = 7.4, for hA3 AR, respectively) before being measured in a microplate beta scintillation counter (MicrobetaTrilux, PerkinElmer, Madrid, Spain).

hA2B AR = molecular target: T2, hA2B AR (Homo sapiens, UniProt P29275); assay: Radioligand competition binding assay at hA2B AR; details: 10 μM compound; [3H]DPCPX; HEK-293 cells; read-out: Percentage Inhibition (%) at 10 μM, hA2B AR
T2 construct: host or cells: HEK-A2B (HEK-293T-A2B) cell line
T2 sequence (P29275 1-332): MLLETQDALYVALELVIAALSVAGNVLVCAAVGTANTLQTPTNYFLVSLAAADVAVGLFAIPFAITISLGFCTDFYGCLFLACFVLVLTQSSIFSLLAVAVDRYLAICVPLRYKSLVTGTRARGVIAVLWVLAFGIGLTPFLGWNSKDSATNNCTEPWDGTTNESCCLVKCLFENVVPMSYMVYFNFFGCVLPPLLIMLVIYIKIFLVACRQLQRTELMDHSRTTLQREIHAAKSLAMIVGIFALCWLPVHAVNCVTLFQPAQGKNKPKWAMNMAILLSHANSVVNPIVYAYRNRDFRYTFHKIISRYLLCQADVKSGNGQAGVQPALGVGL
Description: as §1
hA2B AR competition binding experiments were carried out in a multiscreen GF/C 96-well plate. In each well was incubated 25 µg of membranes from Euroscreen HEK-A2B cell line and prepared in laboratory, 25 nM [^3H]-DPCPX (140 Ci/mmol, 1 mCi/mL, Perkin Elmer NET974001MC) and compounds studied according to standard protocol. Non-specific binding was determined in the presence of NECA 1000 µM (Sigma E2397). The reaction mixture (Vt: 250 µL/well) was incubated at 25°C for 30 min, 200 µL was transferred to GF/C 96-well plate (Millipore, Madrid, Spain), and pretreated with binding buffer (Tris-HCl 50 Mm, EDTA 1 mM, MgCl2 5 mM, Bacitracin […], adenosine deaminase 2 U/Ml, pH = 6.5). It was then filtered and washed four times with 250 μL wash buffer (Tris-HCl 50 mM, EDTA 1 mM, MgCl2 5 mM, pH = 6.5), before being measured in a microplate beta scintillation counter (MicrobetaTrilux, PerkinElmer, Madrid, Spain).

hA1 AR [1] = molecular target: T3, hA1 AR (Homo sapiens, UniProt P30542); assay: Radioligand competition binding assay at hA1 AR; details: for inhibition at 10 µM / Percentage Inhibition (%) at 10 μM, hA1 AR: 10 μM compound; for inhibition at 10 µM / Ki / Percentage Inhibition (%) at 10 μM, hA1 AR: [3H]DPCPX, CHO cells; for inhibition at 10 µM: read-out: Percentage Inhibition (%) at 10 μM, hA1 AR
T3 construct: host or cells: CHO-A1 (CHO cells expressing hA1 AR)
T3 sequence (P30542 1-326): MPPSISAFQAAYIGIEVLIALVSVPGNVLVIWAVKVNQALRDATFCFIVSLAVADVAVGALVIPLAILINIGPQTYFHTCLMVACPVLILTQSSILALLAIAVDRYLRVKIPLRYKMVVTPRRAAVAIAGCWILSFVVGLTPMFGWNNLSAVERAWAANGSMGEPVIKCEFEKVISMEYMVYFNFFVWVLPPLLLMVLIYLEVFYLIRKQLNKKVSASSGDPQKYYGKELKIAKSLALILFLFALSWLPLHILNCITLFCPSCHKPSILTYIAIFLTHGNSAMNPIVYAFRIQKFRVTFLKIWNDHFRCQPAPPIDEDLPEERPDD
Description: as §1, §2

hA2A AR [2] = molecular target: T4, hA2A AR (Homo sapiens, UniProt P29274); assay: Radioligand competition binding assay at hA2A AR; details: 10 μM compound, [3H]ZM241385, Hela cells; for inhibition at 10 µM: read-out: Percentage Inhibition (%) at 10 μM, hA2A AR
T4 construct: expressed in transfected cells; host or cells: Hela-A2A cell line
Description: as §1, §2

hA1 AR [3] = molecular target: T3, hA1 AR; details: read-out: Ki at hA1AR; cited from earlier work
hA2A AR [4] = molecular target: T4, hA2A AR; details: cited from earlier work

T4 sequence (P29274 whole entry): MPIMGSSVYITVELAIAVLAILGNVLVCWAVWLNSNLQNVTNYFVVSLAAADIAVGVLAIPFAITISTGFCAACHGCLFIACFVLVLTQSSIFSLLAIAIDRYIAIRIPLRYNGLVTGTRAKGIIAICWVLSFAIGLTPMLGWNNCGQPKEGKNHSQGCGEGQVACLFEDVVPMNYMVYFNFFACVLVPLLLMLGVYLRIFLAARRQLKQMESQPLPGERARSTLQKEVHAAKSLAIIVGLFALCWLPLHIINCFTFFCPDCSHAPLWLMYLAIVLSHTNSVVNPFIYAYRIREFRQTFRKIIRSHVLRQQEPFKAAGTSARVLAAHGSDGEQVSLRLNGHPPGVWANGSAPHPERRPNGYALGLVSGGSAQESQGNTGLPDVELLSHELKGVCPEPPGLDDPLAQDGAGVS

| inhibition at 10 µM (hA3 AR) [%] | inhibition at 10 µM (hA2B AR) [%] | inhibition at 10 µM (hA1 AR [1]) [%] | inhibition at 10 µM (hA2A AR [2]) [%] | Structure (SMILES) | other results |
| --- | --- | --- | --- | --- | --- |
| 85 ± 1 | 55 ± 2 | 52 ± 1 | 35 ± 6 | COC(=O)c1ccc(-c2nc(N)nc(Nc3ccc(OC)c(F)c3)n2)cc1 [Compound 11f, methyl-4-{4-amino-6-[(3-fluoro-4-methoxyphenyl)amino]-1,3,5-triazin-2-yl}benzoate] | – |
| 79 ± 1 | 93 ± 3 | 74 ± 1 | 30 ± 1 | COc1ccc(Nc2nc(N)nc(-c3ccc(C(F)(F)F)cc3)n2)cc1F [Compound 11d, N^2-(3-fluoro-4-methoxyphenyl)-6-[4-(trifluoromethyl)phenyl]-1,3,5-triazine-2,4-diamine] | – |
| 72 ± 3 | 52 ± 1 | 45 ± 5 | 50 ± 2 | COc1ccc(Nc2nc(N)nc(-c3ccc(C#N)cc3)n2)cc1F [Compound 11e, 4-{4-amino-6-[(3-fluoro-4-methoxyphenyl)amino]-1,3,5-triazin-2-yl}benzonitrile] | – |
| 78 ± 3 | 35 ± 2 | 56 ± 1 | 48 ± 6 | CCOC(=O)c1ccc(-c2nc(N)nc(Nc3ccc(OC)c(F)c3)n2)cc1 [Compound 11g, ethyl-4-{4-amino-6-[(3-fluoro-4-methoxyphenyl)amino]-1,3,5-triazin-2-yl}benzoate] | – |
| 79 ± 1 | 66 ± 6 | 88 ± 1 | 26 ± 5 | COc1ccc(Nc2nc(N)nc(-c3cc(F)c(O)c(F)c3)n2)cc1F [Compound 11h, 4-{4-amino-6-[(3-fluoro-4-methoxyphenyl)amino]-1,3,5-triazin-2-yl}-2,6-difluorophenol] | Percentage Inhibition (%) at 10 μM, hA1 AR (hA1 AR [1]): inactive |
| 60 ± 1 | 27 ± 6 | 48 ± 4 | 81 ± 1 | COc1ccc(Nc2nc(N)nc(-c3ccc(OC(F)(F)F)cc3)n2)cc1F [Compound 11c, N^2-(3-fluoro-4-methoxyphenyl)-6-[4-(trifluoromethoxy)phenyl]-1,3,5-triazine-2,4-diamine] | – |
| 83 ± 1 | 72 ± 6 | 53 ± 1 | 57 ± 2 | COc1ccc(Nc2nc(N)nc(-c3ccc(F)c([N+](=O)[O-])c3)n2)cc1F [Compound 11i, 6-(4-fluoro-3-nitrophenyl)-N^2-(3-fluoro-4-methoxyphenyl)-1,3,5-triazine-2,4-diamine] | Percentage Inhibition (%) at 10 μM, hA1 AR (hA1 AR [1]): inactive |

More lines, now with the values behind:

| Structure (SMILES) | inhibition at 10 µM (hA3 AR) [%] | inhibition at 10 µM (hA2B AR) [%] | inhibition at 10 µM (hA1 AR [1]) [%] | inhibition at 10 µM (hA2A AR [2]) [%] | other results |
| --- | --- | --- | --- | --- | --- |
| COc1cc(Nc2nc(N)nc(-c3ccc(O)cc3)n2)cc(OC)c1 [Compound 9b, 4-{4-amino-6-[(3,5-dimethoxyphenyl)amino]-1,3,5-triazin-2-yl}phenol] | 93 ± 1 | 62 ± 2 | 99 ± 1 | 84 ± 4 | Ki (hA1 AR [1]): 0.0697 µM |
| COc1cc(Cl)ccc1Nc1nc(N)nc(-c2oc3ccccc3c2C)n1 [Compound 4] | – | – | – | – | Ki (hA1 AR [3]): 1.44 µM; Selectivity hA1/hA2AAR (hA2A AR [4]): 2.94; Ki (hA2A AR [4]; read-out: Ki at hA2AAR): 0.49 µM |
| Cc1ccsc1/C=C/c1nc(N)nc(-c2ccccc2O)n1 [Compound 3] | – | – | – | – | Ki (hA1 AR [3]): 0.0329 µM; Selectivity hA1/hA2AAR (hA2A AR [4]): 9.5 |
| COc1ccc(Nc2nc(N)nc(-c3ccc(O)cc3)n2)cc1F [Compound 9a, 4-{4-amino-6-[(3-fluoro-4-methoxyphenyl)amino]-1,3,5-triazin-2-yl}phenol] | > 95 | 72 ± 2 | 99 ± 1 | 58 ± 1 | Percentage Inhibition (%) at 10 μM, hA3 AR (hA3 AR): 97 ± 1%; Ki (hA3 AR): 0.0555 µM; Ki (hA1 AR [1]): 0.139 µM; Selectivity (hA1 AR:hA3 AR) (hA1 AR [1]; ratio of Ki hA1 AR to Ki hA3 AR): 2.5 and 2.51; Percentage Inhibition (%) at 10 μM, hA2A AR (hA2A AR [2]; 10 µM): 56 ± 3% |
| Nc1nc(Nc2ccc(N3CCCCC3)cc2)nc(-c2ccc(O)cc2)n1 [Compound 9f, 4-(4-amino-6-{[4-(piperidin-1-yl)phenyl]amino}-1,3,5-triazin-2-yl)phenol] | 38 ± 1 | 44 ± 4 | 28 ± 1 | 28 ± 3 | – |
| Cc1ccc(Nc2nc(N)nc(-c3ccc(O)cc3)n2)c(C)c1 [Compound 9g, 4-{4-amino-6-[(2,4-dimethylphenyl)amino]-1,3,5-triazin-2-yl}phenol] | 91 ± 1 | 47 ± 2 | > 95 | 80 ± 4 | Percentage Inhibition (%) at 10 μM, hA1 AR (hA1 AR [1]; 10 µM): 99 ± 1%; Ki (hA1 AR [1]): 0.116 µM |
| Nc1nc(Nc2cccc(C(F)(F)F)c2)nc(-c2ccc(O)cc2)n1 [Compound 9d, 4-(4-amino-6-{[3-(trifluoromethyl)phenyl]amino}-1,3,5-triazin-2-yl)phenol] | > 95 | 74 ± 1 | 69 ± 2 | 40 ± 5 | Percentage Inhibition (%) at 10 μM, hA3 AR (hA3 AR): 95 ± 1%; Ki (hA3 AR): 1.26 µM |
| Cc1cc(C)cc(Nc2nc(N)nc(-c3ccc(O)cc3)n2)c1 [Compound 9e, 4-{4-amino-6-[(3,5-dimethylphenyl)amino]-1,3,5-triazin-2-yl}phenol] | 92 ± 1 | 42 ± 2 | > 95 | 58 ± 3 | Percentage Inhibition (%) at 10 μM, hA1 AR (hA1 AR [1]; 10 µM): 96 ± 3%; Ki (hA1 AR [1]): 0.872 µM |

Reference: paper PMC9268102, “Design, Synthesis and Biological Evaluation of 1,3,5-Triazine Derivatives Targeting hA1 and hA3 Adenosine Receptor” (Molecules, 2022)
